Results taken from US9149051B2, “Dairy composition with high-potency sweetener” (THE COCA-COLA COMPANY, priority 2005, dated 2015).

test: Rate of dissolution in H2O at 25° C. of rebaudioside A polymorph and amorphous forms; assay type: physicochemical; details: rating in words
Text: The purification of rebaudioside A by crystallization as described above results in the formation of at least three different polymorphs: Form 1: a rebaudioside A hydrate; Form 2: an anhydrous rebaudioside A; and Form 3: a rebaudioside A solvate. In addition to the at least three polymorph forms of rebaudioside A, the purification of rebaudioside A may result in the formation of an amorphous form of rebaudioside A, Form 4. The aqueous organic solution and temperature of the purification process influence the resulting polymorph and amorphous forms in the substantially pure rebaudioside A composition. FIGS. 1-5 are exemplary powder x-ray diffraction (XRPD) scans of the polymorph and amorphous forms of rebaudioside A: Form 1 (hydrate), Form 2 (anhydrate), Form 3A (methanol solvate), Form 3B (ethanol solvate), and Form 4 (amorphous), respectively.

Substance | Rate of dissolution in H2O at 25° C.
rebaudioside A [Form 3] | High
rebaudioside A [Form 2] | Intermediate
rebaudioside A [Form 4] | High
rebaudioside A [Form 1] | Very low
